Target: T1, human acetyl-CoA carboxylase 2 (ACC2) (Homo sapiens, UniProt O00763)
T1 construct: The cDNA encoding amino acids 144 to 2458 of human acetyl-CoA carboxylase 2; made in house; host or cells: Sf9 insect cells (baculovirus, pFastBac1)
Experiment: Acetyl-CoA carboxylase enzyme assay (malonyl-CoA formation by LC/MS/MS)
Type: biochemical
Conditions: recombinant human ACC2 (aa 144-2458); read-out: IC50 ACC2
Outline: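 Malonyl-CoA formation was read by LC/MS/MS MRM against a [13C3]-malonyl-CoA internal standard, after acetic acid quench. The enzyme was baculovirus/Sf9-expressed human ACC2 residues 144–2458, given 15 minutes room-temperature compound preincubation in HEPES pH 7.5 buffer with MgCl2, citrate and DTT. Substrate solution held 50 μM acetyl-CoA, 120 μM ATP and 2 mM KHCO3.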

T1 sequence (O00763 144-2458): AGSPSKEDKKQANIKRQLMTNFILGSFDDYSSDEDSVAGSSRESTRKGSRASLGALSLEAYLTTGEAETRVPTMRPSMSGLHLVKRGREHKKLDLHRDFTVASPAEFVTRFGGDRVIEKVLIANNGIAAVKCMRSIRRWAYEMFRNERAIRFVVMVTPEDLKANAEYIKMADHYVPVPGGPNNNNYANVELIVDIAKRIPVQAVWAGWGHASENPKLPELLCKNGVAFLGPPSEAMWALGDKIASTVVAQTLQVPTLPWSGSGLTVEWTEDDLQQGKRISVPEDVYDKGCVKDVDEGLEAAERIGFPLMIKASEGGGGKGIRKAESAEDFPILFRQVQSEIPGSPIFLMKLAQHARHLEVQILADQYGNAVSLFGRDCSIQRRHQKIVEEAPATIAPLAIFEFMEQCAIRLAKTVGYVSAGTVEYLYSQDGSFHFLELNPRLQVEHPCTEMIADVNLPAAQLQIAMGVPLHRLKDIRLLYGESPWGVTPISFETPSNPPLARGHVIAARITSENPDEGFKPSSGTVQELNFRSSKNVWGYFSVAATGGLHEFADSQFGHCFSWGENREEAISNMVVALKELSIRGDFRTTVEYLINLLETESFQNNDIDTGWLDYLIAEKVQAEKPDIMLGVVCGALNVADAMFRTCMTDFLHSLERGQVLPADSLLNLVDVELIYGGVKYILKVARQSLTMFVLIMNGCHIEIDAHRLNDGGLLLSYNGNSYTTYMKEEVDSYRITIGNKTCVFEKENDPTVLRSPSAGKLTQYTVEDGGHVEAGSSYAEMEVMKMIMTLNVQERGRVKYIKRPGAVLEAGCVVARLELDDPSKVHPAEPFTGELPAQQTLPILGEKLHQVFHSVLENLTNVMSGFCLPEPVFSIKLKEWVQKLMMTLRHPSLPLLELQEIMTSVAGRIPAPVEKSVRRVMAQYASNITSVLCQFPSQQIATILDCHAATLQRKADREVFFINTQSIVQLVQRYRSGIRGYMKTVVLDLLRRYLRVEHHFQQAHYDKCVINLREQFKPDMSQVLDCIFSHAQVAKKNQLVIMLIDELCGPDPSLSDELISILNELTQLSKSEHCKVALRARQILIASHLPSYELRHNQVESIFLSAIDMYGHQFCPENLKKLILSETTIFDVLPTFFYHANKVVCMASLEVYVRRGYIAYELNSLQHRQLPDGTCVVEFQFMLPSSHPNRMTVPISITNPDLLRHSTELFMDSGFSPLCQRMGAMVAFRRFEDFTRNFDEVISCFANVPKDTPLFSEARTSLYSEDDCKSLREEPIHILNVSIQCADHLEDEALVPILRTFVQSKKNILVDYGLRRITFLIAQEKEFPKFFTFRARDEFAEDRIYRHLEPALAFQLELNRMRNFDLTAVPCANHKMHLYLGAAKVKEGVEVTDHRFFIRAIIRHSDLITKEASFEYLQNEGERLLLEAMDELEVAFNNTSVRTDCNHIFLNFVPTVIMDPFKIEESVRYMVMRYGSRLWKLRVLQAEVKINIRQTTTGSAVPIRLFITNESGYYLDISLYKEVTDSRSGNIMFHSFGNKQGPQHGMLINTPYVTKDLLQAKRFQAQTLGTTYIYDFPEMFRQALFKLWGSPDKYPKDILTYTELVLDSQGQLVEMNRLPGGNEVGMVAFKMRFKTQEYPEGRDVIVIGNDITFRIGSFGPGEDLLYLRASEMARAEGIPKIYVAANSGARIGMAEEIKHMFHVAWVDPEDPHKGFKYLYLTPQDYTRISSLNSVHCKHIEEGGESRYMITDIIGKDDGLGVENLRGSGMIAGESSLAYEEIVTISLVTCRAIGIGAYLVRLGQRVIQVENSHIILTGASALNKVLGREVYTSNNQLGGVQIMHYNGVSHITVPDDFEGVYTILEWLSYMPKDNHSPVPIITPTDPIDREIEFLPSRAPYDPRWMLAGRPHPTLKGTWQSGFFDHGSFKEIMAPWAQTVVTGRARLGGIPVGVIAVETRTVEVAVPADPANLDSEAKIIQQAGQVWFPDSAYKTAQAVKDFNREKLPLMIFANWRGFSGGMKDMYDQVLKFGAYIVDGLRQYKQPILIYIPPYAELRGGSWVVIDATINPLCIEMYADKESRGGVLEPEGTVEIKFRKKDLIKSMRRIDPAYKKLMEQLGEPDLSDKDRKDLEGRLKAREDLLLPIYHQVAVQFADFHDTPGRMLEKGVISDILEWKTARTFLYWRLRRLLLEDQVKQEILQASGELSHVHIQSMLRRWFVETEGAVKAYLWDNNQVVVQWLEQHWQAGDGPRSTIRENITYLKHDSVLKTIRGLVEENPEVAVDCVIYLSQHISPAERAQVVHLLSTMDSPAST

| IC50 [nM] | SMILES |
| --- | --- |
| < 10 | Cn1c(C2CC2)cc2ccc(S(=O)(=O)N[C@H]3CC[C@H](C(=O)N[C@@H](c4ccccc4)C(C)(C)C(=O)O)CC3)cc21 [Example 409, (S)-3-((1r,4S)-4-(2-cyclopropyl-1-methyl-1H-indole-6-sulfonamido)cyclohexanecarboxamido)-2,2-dimethyl-3-phenylpropanoic acid] |
| 20 | C[C@H]1CCCCN1C(=O)[C@H]1CC[C@H](NS(=O)(=O)c2ccc3cc(-c4ccc(CCC(=O)O)cc4)n(C)c3c2)CC1 [Example 410, 3-(4-(1-methyl-6-(N-((1S,4r)-4-((S)-2-methylpiperidine-1-carbonyl)cyclohexyl)sulfamoyl)-1H-indol-2-yl)phenyl)propanoic acid] |
| < 10 | Cn1c(-c2ccccc2)cc2ccc(S(=O)(=O)N[C@H]3CC[C@H](C(=O)N[C@@H](c4ccccc4)C(C)(C)C(=O)O)CC3)cc21 [Example 411, (S)-2,2-dimethyl-3-((1r,4S)-4-(1-methyl-2-phenyl-1H-indole-6-sulfonamido)cyclohexanecarboxamido)-3-phenylpropanoic acid] |
| 240 | C[C@H]1CN(C)CCN1C(=O)[C@H]1CC[C@H](NS(=O)(=O)c2ccc3cc(-c4ccccc4)n(C)c3c2)CC1 [Example 412, N-((1S,4r)-4-((S)-2,4-dimethylpiperazine-1-carbonyl)cyclohexyl)-1-methyl-2-phenyl-1H-indole-6-sulfonamide] |
| 50 | C[C@@H]1COCCN1C(=O)[C@H]1CC[C@H](NS(=O)(=O)c2ccc3c(C#N)c(C4CC4)n(C)c3c2)CC1 [Example 413, 3-cyano-2-cyclopropyl-1-methyl-N-((1R,4r)-4-((R)-3-methylmorpholine-4-carbonyl)cyclohexyl)-1H-indole-6-sulfonamide] |
| 80 | C[C@H]1COCCN1C(=O)[C@H]1CC[C@H](NS(=O)(=O)c2ccc3c(C#N)c(C4CC4)n(C)c3c2)CC1 [Example 414, 3-cyano-2-cyclopropyl-1-methyl-N-((1S,4r)-4-((S)-3-methylmorpholine-4-carbonyl)cyclohexyl)-1H-indole-6-sulfonamide] |
| < 10 | C[C@H]1CCCCN1C(=O)[C@H]1CC[C@H](NS(=O)(=O)c2ccc3c(C#N)c(-c4ccc(CCC(=O)O)cc4)n(C)c3c2)CC1 [Example 415, 3-(4-(3-cyano-1-methyl-6-(N-((1S,4r)-4-((S)-2-methylpiperidine-1-carbonyl)cyclohexyl)sulfamoyl)-1H-indol-2-yl)phenyl)propanoic acid] |
| < 10 | C[C@H]1CCCCN1C(=O)[C@H]1CC[C@H](NS(=O)(=O)c2ccc3c(Cl)c(-c4ccc(CCC(=O)O)cc4)n(C)c3c2)CC1 [Example 416, 3-(4-(3-chloro-1-methyl-6-(N-((1S,4r)-4-((S)-2-methylpiperidine-1-carbonyl)cyclohexyl)sulfamoyl)-1H-indol-2-yl)phenyl)propanoic acid] |
| 80 | C[C@@H]1CN(C(=O)[C@H]2CC[C@H](NS(=O)(=O)c3ccc4c(C#N)c(C5CC5)n(C)c4c3)CC2)C[C@H](C)O1 [Example 417, 3-cyano-2-cyclopropyl-N-((1R,4r)-4-((2S,6R)-2,6-dimethylmorpholine-4-carbonyl)cyclohexyl)-1-methyl-1H-indole-6-sulfonamide] |
| 65 | COC[C@H]1CCCN1C(=O)[C@H]1CC[C@H](NS(=O)(=O)c2ccc3c(C#N)c(C4CC4)n(C)c3c2)CC1 [Example 418, 3-cyano-2-cyclopropyl-N-((1R,4r)-4-((R)-2-(methoxymethyl)pyrrolidine-1-carbonyl)cyclohexyl)-1-methyl-1H-indole-6-sulfonamide] |
| 35 | C[C@@H]1CN(C(=O)[C@H]2CC[C@H](NS(=O)(=O)c3ccc4cc(-c5ccccc5)n(C)c4c3)CC2)C[C@H](C)O1 [Example 419, N-((1R,4r)-4-((2S,6R)-2,6-dimethylmorpholine-4-carbonyl)cyclohexyl)-1-methyl-2-phenyl-1H-indole-6-sulfonamide] |
| 720 | CCOC(=O)[C@H]1CCCN1C(=O)[C@H]1CC[C@H](NS(=O)(=O)c2ccc3cc(-c4ccccc4)n(C)c3c2)CC1 [Example 420, (R)-ethyl 1-((1r,4R)-4-(1-methyl-2-phenyl-1H-indole-6-sulfonamido)cyclohexanecarbonyl)pyrrolidine-2-carboxylate] |
| 50 | C[C@H]1COCCN1C(=O)[C@H]1CC[C@H](NS(=O)(=O)c2ccc3c(C#N)c(C4CC4)n(C)c3c2)CC1 [Example 421, 3-cyano-2-cyclopropyl-1-methyl-N-((1S,4r)-4-((S)-3-methylmorpholine-4-carbonyl)cyclohexyl)-1H-indole-6-sulfonamide] |
| 285 | C[C@H]1COCCN1C(=O)[C@H]1CC[C@H](NS(=O)(=O)c2ccc3cc(C4CC4)n(C)c3c2)CC1 [Example 422, 2-cyclopropyl-1-methyl-N-((1S,4r)-4-((S)-3-methylmorpholine-4-carbonyl)cyclohexyl)-1H-indole-6-sulfonamide] |
| 40 | COC[C@@H](NC(=O)[C@H]1CC[C@H](NS(=O)(=O)c2ccc3cc(-c4ccccc4)n(C)c3c2)CC1)c1ccccc1 [Example 423, (1r,4S)-N-((S)-2-methoxy-1-phenylethyl)-4-(1-methyl-2-phenyl-1H-indole-6-sulfonamido)cyclohexanecarboxamide] |
| 50 | CCC1(CC)CN(C(=O)[C@H]2CC[C@H](NS(=O)(=O)c3ccc4cc(-c5ccccc5)n(C)c4c3)CC2)CCO1 [Example 424, N-((1r,4r)-4-(2,2-diethylmorpholine-4-carbonyl)cyclohexyl)-1-methyl-2-phenyl-1H-indole-6-sulfonamide] |
| 30 | C[C@H]1COCCN1C(=O)[C@H]1CC[C@H](NS(=O)(=O)c2ccc3cc(-c4ccccc4)n(C)c3c2)CC1 [Example 425, 1-methyl-N-((1S,4r)-4-((S)-3-methylmorpholine-4-carbonyl)cyclohexyl)-2-phenyl-1H-indole-6-sulfonamide] |
| 55 | C[C@H]1COCCN1C(=O)[C@H]1CC[C@H](NS(=O)(=O)c2ccc3c(Cl)c(C4CC4)n(C)c3c2)CC1 [Example 426, 3-chloro-2-cyclopropyl-1-methyl-N-((1S,4r)-4-((S)-3-methylmorpholine-4-carbonyl)cyclohexyl)-1H-indole-6-sulfonamide] |
| 15 | C[C@H]1COCCN1C(=O)[C@H]1CC[C@H](NS(=O)(=O)c2ccc3cc(-c4ccc(CCC(=O)O)cc4)n(C)c3c2)CC1 [Example 427, 3-(4-(1-methyl-6-(N-((1S,4r)-4-((S)-3-methylmorpholine-4-carbonyl)cyclohexyl)sulfamoyl)-1H-indol-2-yl)phenyl)propanoic acid] |
| < 10 | C[C@H]1COCCN1C(=O)[C@H]1CC[C@H](NS(=O)(=O)c2ccc3c(Cl)c(-c4ccc(CCC(=O)O)cc4)n(C)c3c2)CC1 [Example 428, 3-(4-(3-chloro-1-methyl-6-(N-((1S,4r)-4-((S)-3-methylmorpholine-4-carbonyl)cyclohexyl)sulfamoyl)-1H-indol-2-yl)phenyl)propanoic acid] |
| 75 | Cn1c(-c2ccc(CCC(=O)O)cc2)c(C#N)c2ccc(S(=O)(=O)N[C@H]3CC[C@H](C(=O)N4CCC[C@H]4C(C)(C)C)CC3)cc21 [Example 429, 3-(4-(6-(N-((1S,4r)-4-((S)-2-tert-butylpyrrolidine-1-carbonyl)cyclohexyl)sulfamoyl)-3-cyano-1-methyl-1H-indol-2-yl)phenyl)propanoic acid] |
| < 10 | Cn1c(-c2ccc(CCC(=O)O)cc2)c(C#N)c2ccc(S(=O)(=O)N[C@H]3CC[C@H](C(=O)N4CCC[C@@H]4C(C)(C)C)CC3)cc21 [Example 430, 3-(4-(6-(N-((1R,4r)-4-((R)-2-tert-butylpyrrolidine-1-carbonyl)cyclohexyl)sulfamoyl)-3-cyano-1-methyl-1H-indol-2-yl)phenyl)propanoic acid] |
| 95 | Cn1c(-c2ccccc2)cc2ccc(S(=O)(=O)N[C@H]3CC[C@H](C(=O)N4CCC[C@@H]4CO)CC3)cc21 [Example 432, N-((1R,4r)-4-((R)-2-(hydroxymethyl)pyrrolidine-1-carbonyl)cyclohexyl)-1-methyl-2-phenyl-1H-indole-6-sulfonamide] |
| 445 | Cn1c(-c2ccccc2)cc2ccc(S(=O)(=O)N[C@H]3CC[C@H](C(=O)N4CCC(O)C4)CC3)cc21 (stereo partly shown) [Example 433, N-((1r,4r)-4-(3-hydroxypyrrolidine-1-carbonyl)cyclohexyl)-1-methyl-2-phenyl-1H-indole-6-sulfonamide] |
| 10 | CC(C)[C@H]1COCCN1C(=O)[C@H]1CC[C@H](NS(=O)(=O)c2ccc3cc(-c4ccccc4)n(C)c3c2)CC1 [Example 434, N-((1S,4r)-4-((S)-3-isopropylmorpholine-4-carbonyl)cyclohexyl)-1-methyl-2-phenyl-1H-indole-6-sulfonamide] |
| 20 | Cn1c(-c2ccccc2)cc2ccc(S(=O)(=O)NC3CCC(C(=O)NC4CCCCNC4=O)CC3)cc21 (stereo not shown) [Example 435, (1r,4r)-4-(1-methyl-2-phenyl-1H-indole-6-sulfonamido)-N-(2-oxoazepan-3-yl)cyclohexanecarboxamide] |
| 20 | COCc1ccc(-c2cc3ccc(S(=O)(=O)N[C@H]4CC[C@H](C(=O)N5CCOC[C@@H]5C)CC4)cc3[nH]2)cc1 [Example 436, 2-(4-(methoxymethyl)phenyl)-N-((1S,4r)-4-((S)-3-methylmorpholine-4-carbonyl)cyclohexyl)-1H-indole-6-sulfonamide] |
| 40 | COCc1ccc(-c2cc3ccc(S(=O)(=O)N[C@H]4CC[C@H](C(=O)N5CCOC[C@@H]5C)CC4)cc3n2C)cc1 [Example 437, 2-(4-(methoxymethyl)phenyl)-1-methyl-N-((1S,4r)-4-((S)-3-methylmorpholine-4-carbonyl)cyclohexyl)-1H-indole-6-sulfonamide] |

From US8697739B2, “Bicyclic acetyl-CoA carboxylase inhibitors and uses thereof” (Novartis AG, priority 2010, dated 2014)
